Inconclusive results are not listed. The source made the active and inactive calls.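 Rule for the calls: active = fitted curve reaches activity 50 in the expected rising direction at or below the top valid tested dose; inconclusive = no clear call, values can overlap the other calls; inactive = activity in the wrong direction, and the rest.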 Square brackets hold non-standard residues; d marks the D form. Peptide text beside a SMILES is read from it. ξ: configuration not given here. Ac5c = NC1(C(=O)O)CCCC1; ξP = O=C(O)C1CCCN1
Biological target: Virion infectivity factor (Human immunodeficiency virus type 1 group M subtype B (isolate BH10)) + Virion infectivity factor (Human immunodeficiency virus type 1 group M subtype B (isolate BRU/LAI)) + Virion infectivity factor (Human immunodeficiency virus type 1 group M subtype B (isolate PCV12)) + Virion infectivity factor (Human immunodeficiency virus type 1 group M subtype B (isolate HXB2)) (UniProt P69720+P69721+P69722+P69723)
Sequence (P69720 whole entry, looked up): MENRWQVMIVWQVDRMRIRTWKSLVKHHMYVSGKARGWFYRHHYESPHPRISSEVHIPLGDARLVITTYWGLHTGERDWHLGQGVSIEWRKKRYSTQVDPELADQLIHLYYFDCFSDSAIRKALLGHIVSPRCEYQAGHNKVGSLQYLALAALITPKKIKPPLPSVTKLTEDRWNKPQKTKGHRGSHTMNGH
Sequence (P69721 whole entry, looked up): as the sequence (P69720 whole entry, looked up) above
Sequence (P69722 whole entry, looked up): as the sequence (P69720 whole entry, looked up) above
Sequence (P69723 whole entry, looked up): as the sequence (P69720 whole entry, looked up) above
Test: dose-dependent disruption of HIV Vif self-association – imaging, HEK293T, cherry-picks, dose response (AID 652241);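 note: imaged cell signal that rises when Vif self-association is disrupted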
Settings: HEK293T Vif multimerization imaging, 24 h

Row | SMILES | activity, higher = inhibition (at 19.5 µM (top of the series)) | also measured
1 | CC(C)CN1C(=O)C(=O)N(CC(=O)c2ccc3c(c2)OCO3)C1=O | inactive | 
2 | CN1CCc2nc3ccc(F)cc3c(C(N)=O)c2C1 | inactive | 
3 | COc1ccc(-c2cc(N)n(S(=O)(=O)c3c(F)c(F)c(F)c(F)c3F)n2)cc1OC |  | AC50: 13.4 µM
4 | CCc1cccc2cc3c(N)c(C(=O)Nc4ccc(S(=O)(=O)N5CCCC5)cc4)sc3nc12 |  | activity, higher = inhibition (at 6.8 µM (top of the series)): inactive
5 | CCc1ccc(S(=O)(=O)Nc2ccc(-c3ccc4nnc(C)n4n3)cc2)s1 |  | AC50: 11.4 µM
6 | COc1ccc(CC(=O)Nc2ccc(-c3noc(-c4cc(OC)c(OC)c(OC)c4)n3)cc2)cc1 |  | AC50: 13 µM
7 | CN(Cc1ccccc1)C(=O)CCC1CCN(C(=O)c2ccco2)CC1 | inactive | 
8 | C[C@@H]1CN([C@H](C)CO)C(=O)CCCn2cc(nn2)CO[C@H]1CN(C)C(=O)c1ccccc1 | inactive | 
9 | Cc1ccc(CNCCCSc2ncccn2)cc1 | inactive | 
10 | Cc1cnc(NC(=O)CN2CCN(c3ccccn3)CC2)s1 |  | AC50: 9.23 µM
11 | CCOC(=O)C1CCCN1C(=O)C1(NC(C)=O)CCCC1 (stereo not drawn) (Ac-[Ac5c]-[ξP]-OEt) | inactive | 
12 | Cc1ccc(CNC(=O)c2cccc3c2C(=O)c2ccc(N4CCC(C)CC4)cc2S3(=O)=O)cc1 |  | AC50: 14.4 µM
13 | CCN1CCN(c2cc(=O)n(-c3cc(Cl)ccc3C)c(=O)[nH]2)CC1 | inactive | 
14 | CN(C)c1ccc(C(O)Cc2nc3ccccc3n2C)cc1 (stereo not drawn) | inactive | 
15 | CCC(=O)Nc1ccc(-c2cc3ccccc3oc2=O)cc1 | inactive | 
16 | CC(NC(=O)CSc1nc2c(c(C(F)(F)F)n1)CCc1ccccc1-2)c1ccccc1 (stereo not drawn) | inactive | 
17 | Cc1cc(NC(=O)CSc2nc3ccccc3c(=O)n2-c2ccccc2)no1 | inactive | 
18 | CCOc1ccc(CC(=O)Nc2sc(Cc3ccccc3)c(C)c2C(N)=O)cc1OCC | inactive | 
19 | O=C(CSc1nnc(CNc2ccc(F)cc2)o1)c1ccccc1 | inactive | 
20 | COc1cc(C(=O)NCCc2cn3ccc(C)cc3n2)cc(OC)c1OC | inactive | 
21 | CCN(C(=O)COc1ccc(C)cc1OC)c1cccc2ccccc12 | inactive | 
22 | COc1ccc2cc(CCNS(=O)(=O)c3ccc(NC(C)=O)cc3)c(=O)[nH]c2c1 | inactive | 
23 | CC(C)OC(=O)c1cn(-c2ccccc2)nc1-c1ccc2c(c1)OCCO2 | inactive | 
24 | c1ccc(-c2cn3nc(-c4ccccc4)c(-c4ccccc4)nc3n2)cc1 |  | AC50: 19.2 µM

Row | SMILES | activity, higher = inhibition (at 19.5 µM (top of the series)) | also measured
25 | COc1cccc(N2CCN(S(=O)(=O)c3cc4c(cc3C)N(C)CCO4)CC2)c1 | inactive | 
26 | COc1ccc(NC(=O)Cn2nnc(C(=O)Nc3ccccc3C)c2N)cc1 | inactive | 
27 | COc1ccc(-c2cc(C(F)(F)F)nc(S(C)(=O)=O)n2)cc1OC |  | AC50: 8.03 µM
28 | COc1ccc(OC)c(/C(O)=C/C(=O)C(=O)Nc2cc(C)ccc2OC)c1 | inactive | 
29 | CCOC(=O)c1cc(-c2ccccc2)sc1NC(=O)COC(=O)c1cccc(S(N)(=O)=O)c1 |  | AC50: 16.1 µM
30 | CCN(CC)C(=O)c1sc2nc(-c3cccs3)cc(-c3cccs3)c2c1N |  | AC50: > 19.5 µM (inactive)
31 | Cc1nnc2ccc(-c3ccc(NS(=O)(=O)c4ccc(Cl)s4)cc3)nn12 |  | AC50: 14.5 µM
32 | O=C(NC1CCCc2ccccc21)c1ccccc1Br (stereo not drawn) | inactive | 
33 | CC(Cc1ccc(O)cc1)NCC(O)c1cc(O)cc(O)c1 (stereo not drawn) | inactive | 
34 | Oc1ccc(-c2nc(-c3ccc(O)c(O)c3)cs2)cc1 |  | AC50: 9.83 µM
35 | CC(C)C(NC(=O)c1ccccc1NC(=O)C(C)(C)C)C(=O)N1CCOCC1 (stereo not drawn) | inactive | 
36 | CN(C)c1ccc(/C=C/C(=O)c2ccc3c(c2)OCO3)cc1 | inactive | 
37 | COc1ccc(CC(=O)OCC(=O)Nc2cccc(Br)c2)cc1 | inactive | 
38 | O=C(O)CCCCn1c(SCc2ccccc2Cl)nc2ccsc2c1=O | inactive | 
39 | CCCn1c(=N)c(C(=O)NCc2ccc3c(c2)OCO3)cc2c(=O)n3cccc(C)c3nc21 | inactive | 
40 | COc1c2occc2c(OC)c2c(=O)cc(C)oc12 | inactive | 
41 | Cc1cccc2cc(COC(=O)c3ccco3)c(=O)[nH]c12 | inactive | 
42 | N#Cc1cc2c(=O)n3ccccc3nc2n(-c2ccccc2Cl)c1=O |  | activity, higher = inhibition (at 6.8 µM (top of the series)): inactive
43 | Clc1ccc(-n2nnnc2Sc2ncnc3sccc23)cc1 |  | AC50: > 6.8 µM (inactive)
44 | Cc1nnc2ccc(-c3ccc(NS(=O)(=O)c4ccc(F)cc4F)cc3)nn12 |  | AC50: > 19.5 µM (inactive)
45 | CCCCCCn1c(N(CC)CC)nc2c1c(=O)[nH]c(=O)n2C | inactive | 
46 | COc1ccc2c(CC(=O)Nc3ccccc3OC)coc2c1 | inactive | 
47 | Cc1cc(NC(=O)NC2(C(F)(F)F)Oc3ccc(Cl)cc3O2)no1 (stereo not drawn) |  | AC50: 7.12 µM
48 | CCCc1cc(=O)oc2cc(OCc3cc(OC)c(OC)c(OC)c3)c(Cl)cc12 |  | AC50: 19.1 µM

Row | SMILES | activity, higher = inhibition (at 19.5 µM (top of the series)) | also measured
49 | Nc1c(C(=O)Nc2nc3ccccc3s2)sc2nc(-c3cccs3)ccc12 |  | AC50: 7.57 µM
50 | COc1ccc(-c2coc3c(C(=O)Nc4cccc(C(C)=O)c4)cccc23)c(C)c1 | inactive | 
51 | Cc1nnc2ccc(-c3cccc(NS(=O)(=O)c4cc(F)ccc4F)c3)nn12 |  | AC50: 10.7 µM
52 | Cc1cccc2cc(CN(CC3CCCO3)C(=O)NC3CCCCC3)c(=O)[nH]c12 (stereo not drawn) | inactive | 
53 | O=C(Nc1ccnc(-c2cccnc2)n1)c1cccs1 | inactive | 
54 | CCn1c(/C=C/c2ccc(F)cc2)nc2ccccc2c1=O | inactive | 
55 | CCOc1ccc(C(C)=O)cc1COC(=O)c1cc([N+](=O)[O-])ccc1N1CCOCC1 | inactive | 
56 | COc1ccc(-c2cc(-c3nc4ccccn4c3NCc3ccccc3)ccc2OC)cc1 |  | AC50: 3.66 µM
57 | CC(C)CCNC(=O)CCc1nnc(COc2ccccc2)o1 | inactive | 
58 | CCC(C)n1c(-c2cccs2)nc2nc3ccccc3nc21 (stereo not drawn) | inactive | 
59 | Cc1cccc(C)c1NC(=O)COc1ccc2c(C)c(Cc3ccccc3)c(=O)oc2c1C | inactive | 
60 | O=C(Nc1cccc(-c2cc3ccccc3oc2=O)c1)c1ccc(Br)o1 | inactive | 
61 | COCCNC(=O)c1nn2c(C(F)(F)F)cc(-c3ccccc3)nc2c1Cl |  | AC50: > 19.5 µM (inactive)
62 | COC(=O)c1ccc2c(=O)n(Cc3ccco3)c(SCC(=O)Nc3cc(C)on3)nc2c1 | inactive | 
63 | COc1ccc(/C=C/C(=O)c2cc(F)ccc2OC(=O)c2ccccc2OC)cc1OC |  | AC50: 1.33 µM
64 | S=C(Nc1ccccc1)N1CCn2c(nc3ccccc32)C1 | inactive | 
65 | O=C(CCCCCn1c(=S)[nH]c2ccc(N3CCOCC3)cc2c1=O)NCc1ccccc1Cl |  | AC50: 6.23 µM
66 | C=CCNc1ncnc2c1ncn2C1OC(CO)C(O)C1O (stereo not drawn) |  | AC50: 5.47 µM
67 | Cc1ccc(S(=O)(=O)NC(=O)Nn2c(C)nnc2C)cc1 | inactive | 
68 | COC(=O)N1C(=O)[C@](c2ccc(Cl)cc2)(C(C)C)N1C(=O)OC | inactive | 
69 | COc1ccc(CNC(=O)CN2C(=O)NC(c3ccccc3)(c3ccccc3)C2=O)cc1 | inactive | 
70 | CC(=O)Nc1ccc(C2(c3ccc(NC(C)=O)cc3)NC(=O)c3ccccc32)cc1 | inactive | 
71 | COCc1cc(C)nc(SCC(=O)Nc2cccc3cccnc23)c1C#N | inactive | 
72 | O=C(Cn1ncc2c3ccccc3n(Cc3cccc(Cl)c3)c2c1=O)N1CCC2(CC1)OCCO2 | inactive | 

Row | SMILES | activity, higher = inhibition (at 19.5 µM (top of the series)) | also measured
73 | CCCn1c(=O)c(C(=O)Nc2ncccc2O)c(O)c2ccccc21 | inactive | 
74 | O=C1/C(=C/c2ccc(N3CCCC3)cc2)NC(=S)N1C1CC1 | inactive | 
75 | O=C1S/C(=C/c2ccc(N3CCOCC3)o2)C(=O)N1Cc1c(F)cccc1Cl |  | activity, higher = inhibition (at 0.75 µM (top of the series)): inactive
76 | CCOc1ncccc1C(=O)OCc1ccccc1 | inactive | 
77 | Cc1ccc(-c2nn3c(C)nnc3c3ccccc23)cc1S(=O)(=O)NCc1ccccc1 | inactive | 
78 | CCC(C)C(=O)Nn1c(C2CC2)nc2cc(OC)c(OC)cc2c1=O (stereo not drawn) | inactive | 
79 | COc1cc(-c2cnc3c(NC=O)cc(-c4ccccc4Cl)cn23)cc(OC)c1OC |  | AC50: 3.03 µM
80 | Cc1cccc(Nc2nc(-c3ccc(O)c(O)c3)cs2)n1 |  | AC50: > 19.5 µM (inactive)
81 | COc1ccc(NC(=O)C2(C)Cc3c(-c4cccc(NC(C)=O)c4)ccnc3O2)cn1 (stereo not drawn) |  | AC50: 8.99 µM
82 | OCC1OC(n2cnc3c(NCc4ccco4)ncnc32)C(O)C1O (stereo not drawn) |  | activity, higher = inhibition (at 2.1 µM (top of the series)): inactive
83 | COc1ccc(/C=C2\CN(Cc3ccccc3)C/C(=C\c3ccc(OC)c(O)c3)C2=O)cc1O |  | activity, higher = inhibition (at 2.1 µM (top of the series)): inactive
84 | CCOC(=O)C1=C(C)NC(=O)NC1 | inactive | 
85 | O=C(Nc1cnccn1)Nc1ccccc1Cl | inactive | 
86 | CCOC(=O)c1[nH]c2c(c1C)C(=O)CC(c1ccco1)C2 (stereo not drawn) |  | AC50: 5.79 µM
87 | Cc1c(NC(=O)CC(O)(C(F)(F)F)C(F)(F)F)c(=O)n(-c2ccccc2)n1C | inactive | 
88 | COc1ccc(C(=O)Nc2cc(OC)c(NC(=O)Nc3ccccc3)cc2OC)cc1 | inactive | 
89 | COc1ccc(-c2nc3cnccn3c2NC2CCCCC2)cc1-c1cccc(Cl)c1 |  | AC50: 14.5 µM
90 | CCCCn1c(-c2ccncc2)nc2c1c(=O)[nH]c(=O)n2CC(C)C | inactive | 
91 | NC(=O)c1sc2nc(-c3ccccc3)ccc2c1N | inactive | 
92 | Cc1nc(-c2ccccc2OC(F)(F)F)[nH]c(=O)c1Cl | inactive | 
93 | COc1cc2[nH]c(=O)n(CCCC(=O)NC3CCCCC3)c(=O)c2cc1OC | inactive | 
